From patent US12479832B2, “Liver targeting drug, pharmaceutical composition and use thereof” (priority 2019, dated 2025)
Several values for one entry are separate records, joined by “and”; a condition that tells them apart may be missing. Equal values may be shown once. Entries after “also recorded” stand apart in the source; their conditions may differ. One block for each molecule: values may come before it.

How the values were obtained:
[1] = Pharmacokinetic study: Birinapant in plasma and liver after i.v. Birinapant or I-5-S in rats; conditions: rat, in vivo; for half-life: Birinapant measured after i.v. Birinapant 5 mg/kg, rats
Description: 1. Formulation of preparation and dosing: An appropriate amount of the test sample was precisely weighed, and mixed with an appropriate volume of a solvent (5% DMSO/5% Solutol/90% water) to obtain a clear solution or a homogeneous suspension. The preparation was administered to animals within 4 hours after formulation. The dosage formulation would be administered […] in accordance with facility standard operating procedures. The dosage volume would be determined by the body weights of the animals collected on the morning of administering. 2. Blood collection: Blood (approx. 0.2 ml per point in time) would be drawn each time from the jugular vein of every animal. All blood samples would be transferred to pre-cooled commercial EDTA-K2 test tubes, and kept on wet ice until they were centrifuged. 3. Plasma processing: Blood samples would be centrifuged (3200 rpm, 10 min) at approximately 4° C. Plasma was collected separately and transferred to pre-labeled PP tubes in wet ice at each point in time, and then immediately precipitated by ACN (6 IS) (the ratio of plasma:ACN was 1:4). Centrifugation (10 min, 12,000 rpm) was carried out again to obtain a supernatant. The supernatant was quickly frozen on dry ice and kept at -70±10° C. before LC/MS/MS analysis. 4. Liver processing: Liver tissues were collected at each point in time, washed twice with pre-cooled deionized water, and dried with filter paper. Liver tissues were immediately homogenized with 10-times volume of a methanol-water solution (1:2, v/v). After homogenization, a portion of liver tissue homogenate (e.g., 200 μL of homogenate) was immediately measured. After precipitated on wet ice, the samples were centrifuged, and a supernatant was collected and stored in a refrigerator at -70±10° C. before LC-MS/MS analysis. From the remaining liver homogenate, 800 μL of the homogenate was measured as a spare. […] After the solution of compound Birinapant was intravenously injected into rats, the concentrations of the active compound Birinapant in the rats were determined in the plasma and liver, respectively (see Table 1). After the solution of compound […] was intravenously injected into rats, the concentrations of the active compound Birinapant in the rats were determined in the plasma and liver, respectively (see Table 2).

[2] = Pharmacokinetic test of Compound A or B given orally or intravenously to rats (plasma and liver); format: in vivo; conditions: administered orally or intravenously
Description: To address the above-mentioned problems, the inventors have conducted intensive researches on analogues of Birinapant in the hope of reducing the toxic and side effects on the circulating system while maintaining or improving the therapeutic effect. […] Under the same conditions as described above, after rats were orally or intravenously injected with a solution of Compound A or B, the concentrations of Compound A or B and drug Birinapant in rats were measured in plasma and liver, respectively. […] Therefore, such prodrugs would have no value of application for Birinapant.

hepatitis B virus = conditions: animal models; cited from earlier work
[3] = cited from earlier work
hepatocellular carcinoma = conditions: cited from earlier work

reduction of the maximum concentration of Birinapant in the plasma in comparison to direct use of Birinapant ([1]; iv): 94%
reduction of total drug exposure in the plasma in comparison to direct use of Birinapant ([1]; iv): 49%
total exposure of Birinapant released in liver relative to direct use of Birinapant ([1]; iv): 2.4 times
AUC Ratio (L/P) ([1]; iv, 5.97 mg/kg): 194
SMILES: CC[C@H](NC(=O)[C@H](C)NC)C(=O)N1C[C@@H](OC(C)=O)C[C@H]1Cc1c(-c2[nH]c3cc(F)ccc3c2C[C@@H]2C[C@H](OC(C)=O)CN2C(=O)[C@H](CC)NC(=O)[C@H](C)NC)[nH]c2cc(F)ccc12 [Compound I-5-S]
conversion of the prodrug into the active drug Birinapant [1]: metabolized into the active pharmaceutical ingredient Birinapant

excreted and recovered [2]: 100%
SMILES: CC[C@H](NC(=O)[C@H](C)N(C)C(=O)OCc1ccccc1)C(=O)N1C[C@@H](O)C[C@H]1Cc1c(-c2[nH]c3cc(F)ccc3c2C[C@@H]2C[C@H](O)CN2C(=O)[C@H](CC)NC(=O)[C@H](C)N(C)C(=O)OCc2ccccc2)[nH]c2cc(F)ccc12 [Compound A]
degradation by in vivo esterases to release the active drug Birinapant [2]: have not been degraded at all; also recorded: could not be degraded by in vivo esterase at all

SMILES: CC[C@H](NC(=O)[C@H](C)NC)C(=O)N1C[C@@H](O)C[C@H]1Cc1c(-c2[nH]c3cc(F)ccc3c2C[C@@H]2C[C@H](O)CN2C(=O)[C@H](CC)NC(=O)[C@H](C)NC)[nH]c2cc(F)ccc12 [Birinapant]
C0 ([1]; iv): 3470 ng/mL
AUC0-24 ([1]; iv, 5 mg/kg): 40566 ng·h/g
AUC0-inf ([1]; iv, 5 mg/kg): 76641 ng·h/g
AUC0-last ([1]; iv, 5 mg/kg): 66712 ng·h/g
AUC(0-inf) ([1]; iv, 5 mg/kg): 1090 ng·h/mL
C0 ([1]; iv, 5 mg/kg): 3470 ng/mL
Cmax ([1]; iv, 5 mg/kg): 3470 ng/mL and 4280 ng/g
Kp ([1]; iv, 5 mg/kg): 64
Tmax ([1]; iv, 5 mg/kg): 0.25 h
Vd ([1]; iv, 5 mg/kg): 36.3 L/kg
clearance ([1]; iv, 5 mg/kg): 76.3 mL/min/kg
AUC(0-t) ([1]; iv, 5 mg/kg, AUC0-24): 967 ng·h/mL
AUC(0-t) ([1]; iv, 5 mg/kg, AUC0-last): 1040 ng·h/mL
half-life ([1]; iv, 5 mg/kg, liver): 22.9 h
half-life ([1]; iv, 5 mg/kg, plasma): 14.6 h
inhibition of hepatitis B virus, particularly replication of HBsAg (hepatitis B virus): effective in inhibiting hepatitis B virus
side effect in patients ([3]; patients, high doses): paralysis of facial muscles
safe dose ([3]; per week or twice weekly, cancer clinical trials): 17 mg/M2
Dose Limited Toxicity ([3]; twice weekly, limited by paralysis of facial muscles, cancer clinical trials): 22 mg/M2
survival in dosed mice (hepatocellular carcinoma): significantly prolonged

excreted and recovered [2]: 100%
SMILES: CCCCCOC(=O)N(C)[C@@H](C)C(=O)N[C@@H](CC)C(=O)N1C[C@@H](O)C[C@H]1Cc1c(-c2[nH]c3cc(F)ccc3c2C[C@@H]2C[C@H](O)CN2C(=O)[C@H](CC)NC(=O)[C@H](C)N(C)C(=O)OCCCCC)[nH]c2cc(F)ccc12 [Compound B]
degradation by in vivo esterases to release the active drug Birinapant [2]: have not been degraded at all; also recorded: could not be degraded by in vivo esterase at all
